Measured values from patent US10954269B2, “Anti-inflammatory tripeptides” (Dr. August Wolff Gmbh & Co. KG Arzneimittel, priority 2013, dated 2021).
[ ]: non-standard residue; d: D form. Aib = CC(C)(N)C(=O)O

System: human keratinocyte cell line (HaCaT)
Assay: Cytokine secretion on protein level in activated human keratinocyte cell line HaCaT (13-plex FACS / Luminex, supernatant)
Format: cell-based
Summary of the method: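 Cytokine protein in supernatant is read by multiplex FACS or Luminex. Tripeptide-treated HaCaT cells or blood-derived human T-cells are stimulated beforehand with PMA/Ionomycin or IFN-γ. The most relevant analytes are IL-1, IL-2, IL-6, IL-12p70, IL-17, IFN-γ and TNF-α, sampled 48 h and 72 h after stimulation.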

[1] = HaCaT stimulated with IFN-γ, 10^−9M
[2] = HaCaT stimulated with IFN-γ, 10^−9M, excluded from the final assessment
[3] = HaCaT stimulated with IFN-γ, substance 10^−9M
[4] = HaCaT stimulated with PBS, 10^−9M
[5] = HaCaT stimulated with PBS, 10^−9M, excluded from the final assessment
[6] = HaCaT stimulated with PBS, substance 10^−9M
[7] = HaCaT stimulated with PMA/Ionomycin, 10^−9M
[8] = HaCaT stimulated with PMA/Ionomycin, 10^−9M, excluded from the final assessment
[9] = HaCaT stimulated with PMA/Ionomycin, substance 10^−9M

Work on “H-Lys-[dP]-Thr-OH [K(D)PT, reference compound]” yielded an IL-1 cytokine concentration [1] of 257.77 pg/mL, an IL-2 cytokine concentration [1] of 129.65 pg/mL and an IL-4 cytokine concentration [1] of 84.61 pg/mL. For the same substance, the IL-5 cytokine concentration [1] was 166.92 pg/mL, the IL-6 cytokine concentration [1] was 728.31 pg/mL and the IL-9 cytokine concentration [1] was 83.09 pg/mL. The IL-10 cytokine concentration [1] was 73.19 pg/mL, the IL-13 cytokine concentration [1] was 59.62 pg/mL and the IL-17 cytokine concentration [1] was 664.43 pg/mL. The TNF-α cytokine concentration [1] was 100.07 pg/mL, the IL-12p70 cytokine concentration [2] was 0 pg/mL and the IL-22 cytokine concentration [2] was 0 pg/mL. For the same substance, the IL-1 cytokine concentration [3] was 0 pg/mL, the IL-2 cytokine concentration [3] was 131.59 pg/mL and the IL-4 cytokine concentration [3] was 52.4 pg/mL. It also gave an IL-5 cytokine concentration [3] of 0 pg/mL, an IL-6 cytokine concentration [3] of 238.12 pg/mL and an IL-9 cytokine concentration [3] of 0 pg/mL. The IL-10 cytokine concentration [3] was 0 pg/mL, the IL-12 cytokine concentration [3] was 0 pg/mL and the IL-12p70 cytokine concentration [3] was 0 pg/mL. It also gave an IL-13 cytokine concentration [3] of 0 pg/mL, an IL-17 cytokine concentration [3] of 112.82 pg/mL and an IL-22 cytokine concentration [3] of 0 pg/mL. For the same substance, the TNF-α cytokine concentration [3] was 50.44 pg/mL, the IFN-γ cytokine concentration [4] was 395.55 pg/mL and the IL-1 cytokine concentration [4] was 228.99 pg/mL. The IL-2 cytokine concentration [4] was 201.9 pg/mL, the IL-4 cytokine concentration [4] was 85.48 pg/mL and the IL-5 cytokine concentration [4] was 201.01 pg/mL. For the same substance, the IL-6 cytokine concentration [4] was 72.95 pg/mL, the IL-9 cytokine concentration [4] was 132.74 pg/mL and the IL-10 cytokine concentration [4] was 125.52 pg/mL. It also gave an IL-13 cytokine concentration [4] of 60.72 pg/mL, an IL-17 cytokine concentration [4] of 618.22 pg/mL and a TNF-α cytokine concentration [4] of 90.41 pg/mL. For the same substance, the IL-12p70 cytokine concentration [5] was 0 pg/mL, the IL-22 cytokine concentration [5] was 10982.2 pg/mL and the IFN-γ cytokine concentration [6] was 99.65 pg/mL. For the same substance, the IL-1 cytokine concentration [6] was 65.11 pg/mL, the IL-2 cytokine concentration [6] was 0 pg/mL and the IL-4 cytokine concentration [6] was 144.86 pg/mL. The IL-5 cytokine concentration [6] was 0 pg/mL, the IL-6 cytokine concentration [6] was 78.34 pg/mL and the IL-9 cytokine concentration [6] was 5.27 pg/mL. For the same substance, the IL-10 cytokine concentration [6] was 31.43 pg/mL, the IL-12 cytokine concentration [6] was 0 pg/mL and the IL-12p70 cytokine concentration [6] was 0 pg/mL. It also gave an IL-13 cytokine concentration [6] of 0 pg/mL, an IL-17 cytokine concentration [6] of 0 pg/mL and an IL-22 cytokine concentration [6] of 0 pg/mL. It also gave a TNF-α cytokine concentration [6] of 9.34 pg/mL, an IFN-γ cytokine concentration [7] of 736.13 pg/mL and an IL-1 cytokine concentration [7] of 212.49 pg/mL. It also gave an IL-2 cytokine concentration [7] of 179.25 pg/mL, an IL-4 cytokine concentration [7] of 70.92 pg/mL and an IL-5 cytokine concentration [7] of 157.36 pg/mL. The IL-6 cytokine concentration [7] was 130.87 pg/mL, the IL-9 cytokine concentration [7] was 147.79 pg/mL and the IL-10 cytokine concentration [7] was 84.32 pg/mL. The IL-13 cytokine concentration [7] was 62.95 pg/mL, the IL-17 cytokine concentration [7] was 487.56 pg/mL and the TNF-α cytokine concentration [7] was 116.88 pg/mL. It also gave an IL-12p70 cytokine concentration [8] of 0 pg/mL, an IL-22 cytokine concentration [8] of 10698.1 pg/mL and an IFN-γ cytokine concentration [9] of 0 pg/mL. It also gave an IL-1 cytokine concentration [9] of 0 pg/mL, an IL-2 cytokine concentration [9] of 0 pg/mL and an IL-4 cytokine concentration [9] of 129.6 pg/mL. The IL-5 cytokine concentration [9] was 0 pg/mL, the IL-6 cytokine concentration [9] was 282.85 pg/mL and the IL-9 cytokine concentration [9] was 0 pg/mL. It also gave an IL-10 cytokine concentration [9] of 118.77 pg/mL, an IL-12 cytokine concentration [9] of 0 pg/mL and an IL-12p70 cytokine concentration [9] of 0 pg/mL. For the same substance, the IL-13 cytokine concentration [9] was 0 pg/mL, the IL-17 cytokine concentration [9] was 0 pg/mL and the IL-22 cytokine concentration [9] was 0 pg/mL. The TNF-α cytokine concentration [9] was 0 pg/mL.
In the case of H-Phe-Pro-[Aib]-OH [Example 13], the IL-1 cytokine concentration [3] was 0 pg/mL, the IL-2 cytokine concentration [3] was 0 pg/mL and the IL-4 cytokine concentration [3] was 76.13 pg/mL. The IL-5 cytokine concentration [3] was 0 pg/mL, the IL-6 cytokine concentration [3] was 255.5 pg/mL and the IL-9 cytokine concentration [3] was 0 pg/mL. It also gave an IL-10 cytokine concentration [3] of 7.59 pg/mL, an IL-12p70 cytokine concentration [3] of 0 pg/mL and an IL-13 cytokine concentration [3] of 0 pg/mL. The IL-17 cytokine concentration [3] was 34.2 pg/mL, the IL-22 cytokine concentration [3] was 0 pg/mL and the TNF-α cytokine concentration [3] was 0 pg/mL. The IFN-γ cytokine concentration [6] was 0 pg/mL, the IL-1 cytokine concentration [6] was 17.16 pg/mL and the IL-2 cytokine concentration [6] was 14.24 pg/mL. It also gave an IL-4 cytokine concentration [6] of 132.37 pg/mL, an IL-5 cytokine concentration [6] of 0 pg/mL and an IL-6 cytokine concentration [6] of 74.11 pg/mL. The IL-9 cytokine concentration [6] was 0 pg/mL, the IL-10 cytokine concentration [6] was 74.67 pg/mL and the IL-12p70 cytokine concentration [6] was 0 pg/mL. It also gave an IL-13 cytokine concentration [6] of 1948.04 pg/mL, an IL-17 cytokine concentration [6] of 0 pg/mL and an IL-22 cytokine concentration [6] of 0 pg/mL. The TNF-α cytokine concentration [6] was 6.94 pg/mL, the IFN-γ cytokine concentration [9] was 0 pg/mL and the IL-1 cytokine concentration [9] was 0 pg/mL. The IL-2 cytokine concentration [9] was 0 pg/mL, the IL-4 cytokine concentration [9] was 91.99 pg/mL and the IL-5 cytokine concentration [9] was 0 pg/mL. For the same substance, the IL-6 cytokine concentration [9] was 216.69 pg/mL, the IL-9 cytokine concentration [9] was 0 pg/mL and the IL-10 cytokine concentration [9] was 41.86 pg/mL. The IL-12p70 cytokine concentration [9] was 0 pg/mL, the IL-13 cytokine concentration [9] was 0 pg/mL and the IL-17 cytokine concentration [9] was 21.33 pg/mL. The IL-22 cytokine concentration [9] was 0 pg/mL, the TNF-α cytokine concentration [9] was 0 pg/mL and the “secretion / expression of pro-inflammatory cytokines (supernatant)” value (activated human keratinocytes) was “decreased expression”.
Substance “alpha-melanocyte-stimulating hormone [α-MSH, reference compound]” has an IL-1 cytokine concentration [1] of 238.96 pg/mL, an IL-2 cytokine concentration [1] of 119.87 pg/mL and an IL-4 cytokine concentration [1] of 70.08 pg/mL. It also gave an IL-5 cytokine concentration [1] of 184.1 pg/mL, an IL-6 cytokine concentration [1] of 750.84 pg/mL and an IL-9 cytokine concentration [1] of 83.5 pg/mL. The IL-10 cytokine concentration [1] was 82.71 pg/mL, the IL-13 cytokine concentration [1] was 55.34 pg/mL and the IL-17 cytokine concentration [1] was 598.13 pg/mL. For the same substance, the TNF-α cytokine concentration [1] was 67.75 pg/mL, the IL-12p70 cytokine concentration [2] was 0 pg/mL and the IL-22 cytokine concentration [2] was 0 pg/mL. The IL-1 cytokine concentration [3] was 0 pg/mL, the IL-2 cytokine concentration [3] was 0 pg/mL and the IL-4 cytokine concentration [3] was 0 pg/mL. For the same substance, the IL-5 cytokine concentration [3] was 0 pg/mL, the IL-6 cytokine concentration [3] was 202.37 pg/mL and the IL-9 cytokine concentration [3] was 0 pg/mL. The IL-10 cytokine concentration [3] was 0 pg/mL, the IL-12 cytokine concentration [3] was 0 pg/mL and the IL-12p70 cytokine concentration [3] was 0 pg/mL. For the same substance, the IL-13 cytokine concentration [3] was 0 pg/mL, the IL-17 cytokine concentration [3] was 95.44 pg/mL and the IL-22 cytokine concentration [3] was 0 pg/mL. For the same substance, the TNF-α cytokine concentration [3] was 45.91 pg/mL, the IFN-γ cytokine concentration [4] was 365.47 pg/mL and the IL-1 cytokine concentration [4] was 271.66 pg/mL. It also gave an IL-2 cytokine concentration [4] of 251.78 pg/mL, an IL-4 cytokine concentration [4] of 56.84 pg/mL and an IL-5 cytokine concentration [4] of 150.8 pg/mL. The IL-6 cytokine concentration [4] was 76.75 pg/mL, the IL-9 cytokine concentration [4] was 124.69 pg/mL and the IL-10 cytokine concentration [4] was 107.72 pg/mL. For the same substance, the IL-13 cytokine concentration [4] was 65.47 pg/mL, the IL-17 cytokine concentration [4] was 544.96 pg/mL and the TNF-α cytokine concentration [4] was 97.16 pg/mL. The IL-12p70 cytokine concentration [5] was 0 pg/mL, the IL-22 cytokine concentration [5] was 9847.56 pg/mL and the IFN-γ cytokine concentration [6] was 0 pg/mL. For the same substance, the IL-1 cytokine concentration [6] was 0 pg/mL, the IL-2 cytokine concentration [6] was 0 pg/mL and the IL-4 cytokine concentration [6] was 118.52 pg/mL. It also gave an IL-5 cytokine concentration [6] of 0 pg/mL, an IL-6 cytokine concentration [6] of 15.22 pg/mL and an IL-9 cytokine concentration [6] of 9.51 pg/mL. For the same substance, the IL-10 cytokine concentration [6] was 39.54 pg/mL, the IL-12 cytokine concentration [6] was 0 pg/mL and the IL-12p70 cytokine concentration [6] was 0 pg/mL. The IL-13 cytokine concentration [6] was 0 pg/mL, the IL-17 cytokine concentration [6] was 0 pg/mL and the IL-22 cytokine concentration [6] was 0 pg/mL. For the same substance, the TNF-α cytokine concentration [6] was 0 pg/mL, the IFN-γ cytokine concentration [7] was 617.26 pg/mL and the IL-1 cytokine concentration [7] was 143.16 pg/mL. The IL-2 cytokine concentration [7] was 98.72 pg/mL, the IL-4 cytokine concentration [7] was 72.6 pg/mL and the IL-5 cytokine concentration [7] was 131.91 pg/mL. It also gave an IL-6 cytokine concentration [7] of 113.54 pg/mL, an IL-9 cytokine concentration [7] of 105.55 pg/mL and an IL-10 cytokine concentration [7] of 111.19 pg/mL. For the same substance, the IL-13 cytokine concentration [7] was 55.34 pg/mL, the IL-17 cytokine concentration [7] was 338.9 pg/mL and the TNF-α cytokine concentration [7] was 103.98 pg/mL. The IL-12p70 cytokine concentration [8] was 0 pg/mL, the IL-22 cytokine concentration [8] was 9995.76 pg/mL and the IFN-γ cytokine concentration [9] was 0 pg/mL. The IL-1 cytokine concentration [9] was 0 pg/mL, the IL-2 cytokine concentration [9] was 0 pg/mL and the IL-4 cytokine concentration [9] was 113.12 pg/mL. For the same substance, the IL-5 cytokine concentration [9] was 0 pg/mL, the IL-6 cytokine concentration [9] was 179.03 pg/mL and the IL-9 cytokine concentration [9] was 0 pg/mL. For the same substance, the IL-10 cytokine concentration [9] was 93.2 pg/mL, the IL-12 cytokine concentration [9] was 0 pg/mL and the IL-12p70 cytokine concentration [9] was 0 pg/mL. For the same substance, the IL-13 cytokine concentration [9] was 0 pg/mL, the IL-17 cytokine concentration [9] was 0 pg/mL and the IL-22 cytokine concentration [9] was 0 pg/mL. The TNF-α cytokine concentration [9] was 0 pg/mL.
